In experiment [1] the target is T1, SIRT7 (recombinant human SIRT7, non-tagged) (Homo sapiens, UniProt Q9NRC8).
T1 sequence (Q9NRC8 1-400): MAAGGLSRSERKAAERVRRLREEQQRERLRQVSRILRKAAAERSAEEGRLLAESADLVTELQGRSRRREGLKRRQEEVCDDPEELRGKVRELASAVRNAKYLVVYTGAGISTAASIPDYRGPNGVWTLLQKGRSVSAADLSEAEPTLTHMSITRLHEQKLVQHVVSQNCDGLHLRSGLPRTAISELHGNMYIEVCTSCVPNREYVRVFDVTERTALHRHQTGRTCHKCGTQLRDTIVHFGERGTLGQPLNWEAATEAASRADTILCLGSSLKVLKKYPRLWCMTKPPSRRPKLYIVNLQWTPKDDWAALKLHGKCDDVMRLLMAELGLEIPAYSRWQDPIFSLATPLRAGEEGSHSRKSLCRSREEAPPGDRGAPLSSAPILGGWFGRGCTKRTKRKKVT
Kind of experiment: fluorogenic deacylase assay. It is filed as biochemical.

Experiment [2] concerns the target T1, SIRT7 (recombinant human SIRT7, non-tagged). As to the kind of experiment: fluorogenic deacylase assay. To be noted: read-out: % inhibition at 100 μM. In kind it is biochemical.

A word on the IC50: it is the midpoint of a concentration-inhibition curve. `CCCCCCCCCCCCNC(=S)CCCCC[C@H](NC(=O)OCc1ccccc1)C(=O)N[C@H](C(=O)N[C@@H](CCC(=O)O)C(N)=O)C(C)C` [compound 34, inverse thioamide 34]: the half-inhibitory concentration (IC50) in experiment [1] amounted to 34 µM.

The term inhibition denotes the share of the control response that was lost under treatment. As to `CCCCCCCCCCCCNC(=S)NCCCC[C@H](NC(=O)OCc1ccccc1)C(=O)N[C@@H](C)C(=O)N[C@@H](CCCNC(=N)N)C(N)=O` [compound 3], in experiment [2], the inhibition at 100 µM was 26%.

Turning to `CCCCCCCCCCCCNC(=O)CCCCC[C@H](NC(=O)OCc1ccccc1)C(=O)N[C@H](C(=O)N[C@@H](CCC(=O)O)C(N)=O)C(C)C` [compound 33, inverse amide 33], the IC50 in experiment [1] was 44 µM.

The record behind these values is article doi:10.1101/2023.06.16.545261v2 (biorxiv, 2023).
